Consider nine compounds from article PMC3443097, “Evolution of Bombesin Conjugates for Targeted PET Imaging of Tumors” (PLoS ONE, 2012).

Square brackets hold non-standard residues; d marks the D form. Peptide text beside a SMILES is read from it. * marks the point of attachment. CPTA = 4-(1,4,8,11-tetraazacyclotetradec-1-yl)-methyl benzoic acid chelator, O=C(c1ccc(CN2CCCNCCNCCCNCC2)cc1)*; DOTA = O=C(O)CN1CCN(CC(=O)O)CCN(CC(=O)*)CCN(CC(=O)O)CC1; Nle = CCCC[C@H](N)C(=O)O; GABA = NCCCC(=O)O; βAla = NCCC(=O)O

The target of one series is T1, mouse GRP receptor (Mus musculus, UniProt P21729).
T1 construct: mouse pancreas tissue (expressing mouse GRP receptor); from tissue; host or cells: mouse pancreas tissue sections
As to the kind of experiment: Competitive binding vs [^125I-Tyr^4] BN, autoradiography of mouse pancreas tissue sections. Particulars: displacement of [^125I-Tyr^4] BN, ± SD, number of independent studies in brackets. The protocol:
(§1) Using [^125I-Tyr^4] BN as a GRP receptor preferring ligand, the IC50 values of the ^natCu/^natIn-labeled peptides were measured by in vitro autoradiography of sections of human prostate cancer tissue overexpressing GRP receptors or mouse pancreas tissue expressing mouse GRP receptors. The prostate cancer tissues originated from samples investigated previously or collected prospectively at the Institute of Pathology of the University of Berne in accordance with international ethical guidelines, including informed written consent and approval by the institutional review board. The binding affinity profile of [Cu^II]-BZH7 for three bombesin receptor subtypes was determined by using [^125I-D-Tyr^6, βAla^11, Phe^13, Nle^14] BN(6–14) as an universal radioligand. The procedures were described in detail previously.
(§2) Competitive binding assays were performed with human GRP receptor-positive cancerous tissue and mouse pancreas tissue (expressing mouse GRP receptor) using [^125I-Tyr^4]bombesin as radioligand. Table 2 summarizes the binding affinities of the metallopeptides to GRP receptors of mouse and human origin.

The target of the next series is T2, human GRP receptor (Homo sapiens, UniProt P30550).
T2 construct: in vitro autoradiography of sections of human prostate cancer tissue overexpressing GRP receptors; from tissue; host or cells: human prostate cancer tissue sections (patient samples, Institute of Pathology, University of Berne)
The series is described as follows: Competitive binding vs [^125I-Tyr^4] BN, autoradiography of human prostate cancer tissue sections. Particulars: displacement of [^125I-Tyr^4] BN, ± SD, number of independent studies in brackets. The procedure: as §1, §2

Series [1] deals with T3, BNRS-3 (Homo sapiens, UniProt P32247).
T3 construct: from tissue
T3 sequence (P32247 1-399): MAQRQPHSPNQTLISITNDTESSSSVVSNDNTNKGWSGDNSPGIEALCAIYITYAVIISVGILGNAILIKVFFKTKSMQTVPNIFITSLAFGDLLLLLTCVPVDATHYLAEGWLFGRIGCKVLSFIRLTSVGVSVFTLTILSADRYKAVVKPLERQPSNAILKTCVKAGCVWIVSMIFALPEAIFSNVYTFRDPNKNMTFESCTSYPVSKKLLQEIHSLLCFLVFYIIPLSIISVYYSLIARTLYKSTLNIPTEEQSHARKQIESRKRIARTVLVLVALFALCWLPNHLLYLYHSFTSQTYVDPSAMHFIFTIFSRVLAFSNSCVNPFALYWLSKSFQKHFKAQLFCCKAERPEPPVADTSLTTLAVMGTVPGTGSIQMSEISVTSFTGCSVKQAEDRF
As to the kind of experiment: BN receptor subtype profile with universal radioligand [^125I-D-Tyr^6, βAla^11, Phe^13, Nle^14] BN(6–14), human cancerous tissues. Particulars: human cancerous tissue, read-out: binding affinity to BNRS-3. The protocol: as §1
(§3) The most promising peptide, Cu-BZH7, was also studied with respect to BN receptor subtype profiles using human cancerous tissues shown to express predominantly a single bombesin receptor subtype.

Series [2] has as its target T4, GRP-R (Homo sapiens, UniProt P30550).
T4 construct: from tissue
The series is described as above. Particulars: human cancerous tissue, read-out: binding affinity to GRP-R. The procedure: as §1, §3

In series [3] the target is T5, NMB-R (Homo sapiens, UniProt P28336).
T5 construct: from tissue
The description is as above. Particulars: human cancerous tissue, read-out: binding affinity to NMB-R. The protocol:
as §1, §3

For a further series, the system named is PC-3 cells. The series is described as follows: Composition of radioactivity externalized from PC-3 cells (metabolites). In kind it is cell-based, human. The protocol:
To identify the composition of the externalized peptides, [^111In]-BZH4 (^111In-DOTA-GABA-D-Tyr-Gln-Trp-Ala-Val-βAla-His-Leu-Nle-NH2) was used as a surrogate peptide with high specific activity, required for metabolic studies. Upon 2 h of internalization and acid wash, the externalized radioactivity after 2 h incubation already consisted of approximately 84% metabolites (^111In-DOTA: 14%; ^111In-DOTA-GABA-D-Tyr-Gln: main peak, 64%; ^111In-DOTA-GABA-D-Tyr-Gln-Trp-Ala-Val-βAla: 6%) and 16% intact peptide.

Series [4] concerns BNRS-3. Particulars: read-out: affinity to BNRS-3; cited from earlier work.
The subject of series [5] is NMB-R. Particulars: read-out: affinity to NMB-R; cited from earlier work.
The test system of series [6] is GRP-R. Particulars: read-out: affinity to GRP-R; cited from earlier work.
[7] abbreviates: 2 h internalization, acid wash, 2 h incubation.

T2 sequence (P30550 whole entry): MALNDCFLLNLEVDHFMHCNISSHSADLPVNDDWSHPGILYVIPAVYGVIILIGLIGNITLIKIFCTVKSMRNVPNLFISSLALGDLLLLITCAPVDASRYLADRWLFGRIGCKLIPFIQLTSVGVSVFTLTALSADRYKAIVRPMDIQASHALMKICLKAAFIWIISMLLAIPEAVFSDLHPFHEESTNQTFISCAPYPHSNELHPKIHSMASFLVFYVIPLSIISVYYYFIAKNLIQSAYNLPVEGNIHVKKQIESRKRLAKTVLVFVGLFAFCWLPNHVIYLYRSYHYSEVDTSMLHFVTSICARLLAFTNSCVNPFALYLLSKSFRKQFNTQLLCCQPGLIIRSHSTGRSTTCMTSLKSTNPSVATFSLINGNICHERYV
T1 sequence (P21729 whole entry): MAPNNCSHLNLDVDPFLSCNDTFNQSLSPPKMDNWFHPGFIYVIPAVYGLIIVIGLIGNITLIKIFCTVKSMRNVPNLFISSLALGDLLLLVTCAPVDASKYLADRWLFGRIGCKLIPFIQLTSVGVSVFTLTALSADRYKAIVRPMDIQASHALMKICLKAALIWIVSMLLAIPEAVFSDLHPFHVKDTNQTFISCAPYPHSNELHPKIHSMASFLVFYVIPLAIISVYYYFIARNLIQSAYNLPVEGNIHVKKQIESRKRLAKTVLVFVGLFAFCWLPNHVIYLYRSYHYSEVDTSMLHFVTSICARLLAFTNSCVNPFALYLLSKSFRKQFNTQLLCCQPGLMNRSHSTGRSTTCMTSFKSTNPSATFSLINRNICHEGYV
T4 sequence (P30550 whole entry): as the sequence (P30550 whole entry) above
T5 sequence (P28336 whole entry): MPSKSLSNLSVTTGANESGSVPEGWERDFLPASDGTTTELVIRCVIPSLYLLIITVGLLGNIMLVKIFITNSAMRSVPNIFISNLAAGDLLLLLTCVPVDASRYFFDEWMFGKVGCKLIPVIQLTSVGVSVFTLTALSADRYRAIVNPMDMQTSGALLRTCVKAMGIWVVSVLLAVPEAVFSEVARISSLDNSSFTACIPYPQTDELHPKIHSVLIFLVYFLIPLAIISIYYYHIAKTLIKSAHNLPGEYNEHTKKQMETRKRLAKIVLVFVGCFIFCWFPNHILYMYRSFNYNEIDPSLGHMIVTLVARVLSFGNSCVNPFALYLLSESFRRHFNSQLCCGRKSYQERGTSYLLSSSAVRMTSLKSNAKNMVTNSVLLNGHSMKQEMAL

`CCCC[C@H](NC(=O)[C@H](CC(C)C)NC(=O)[C@H](Cc1c[nH]cn1)NC(=O)CCNC(=O)[C@@H](NC(=O)[C@H](C)NC(=O)[C@H](Cc1c[nH]c2ccccc12)NC(=O)[C@H](CCC(N)=O)NC(=O)[C@@H](Cc1ccc(O)cc1)NC(=O)CCCNC(=O)CN1CCN(CC(=O)O)CCN(CC(=O)O)CCN(CC(=O)O)CC1)C(C)C)C(N)=O` [[Cu^II]-BZH4, Cu^II-DOTA-GABA-[D-Tyr^6, βAla^11, Nle^14] BN(6–14)] ({DOTA-GABA}-[dY]QWAV[βAla]HL[Nle]-NH2): the IC50 at mouse GRP receptor worked out at 1.1 ± 0.3 nM; at human GRP receptor, 26.3 ± 3.5 nM.

For `CSCC[C@H](NC(=O)[C@H](CC(C)C)NC(=O)[C@H](Cc1c[nH]cn1)NC(=O)CCNC(=O)[C@@H](NC(=O)[C@H](C)NC(=O)[C@H](Cc1c[nH]c2ccccc12)NC(=O)[C@H](CCC(N)=O)NC(=O)c1ccc(CN2CCCNCCNCCCNCC2)cc1)C(C)C)C(N)=O` [[Cu^II]-BZH7, Cu^II-CPTA-[βAla^11] BN(7–14)], the IC50 was determined as 1.4 ± 0.6 nM at BNRS-3 [1], 0.3 ± 0.07 nM on GRP-R [2] and 0.27 ± 0.16 nM on NMB-R [3].

Regarding `CCCC[C@H](NC(=O)[C@H](CC(C)C)NC(=O)[C@H](Cc1c[nH]cn1)NC(=O)CCNC(=O)[C@@H](NC(=O)[C@H](C)NC(=O)[C@H](Cc1c[nH]c2ccccc12)NC(=O)[C@H](CCC(N)=O)NC(=O)[C@@H](Cc1ccc(O)cc1)NC(=O)CCCNC(=O)CN1CCN(CC(=O)O)CCN(CC(=O)O)CCN(CC(=O)O)CC1)C(C)C)C(N)=O` [[^111In]-BZH4, ^111In-DOTA-GABA-D-Tyr-Gln-Trp-Ala-Val-βAla-His-Leu-Nle-NH2, metal not drawn] ({DOTA-GABA}-[dY]QWAV[βAla]HL[Nle]-NH2), in the series with PC-3 cells, the “externalized radioactivity: ^111In-DOTA” value was found to be 14% and the “externalized radioactivity: metabolites (total)” value was “approximately 84%”. Also, in the series on PC-3 cells (setting [7]), the “externalized radioactivity: ^111In-DOTA-GABA-D-Tyr-Gln (main peak)” value came out at 64% and the “externalized radioactivity: ^111In-DOTA-GABA-D-Tyr-Gln-Trp-Ala-Val-βAla” value was determined as 6%.

As to “Cu^II-CPTA -[D-Tyr^6, βAla^11, Nle^14] BN(6–14) [[Cu^II]-BZH5]”, the results for the IC50 at mouse GRP receptor and at human GRP receptor were 0.6 ± 0.2 nM and 3.2 ± 0.5 nM, respectively.

Consider “Cu^II-CPTA-[D-Tyr^6, βAla^11] BN(6–14) ({CPTA}-[dY]QWAV[βAla]HLM-NH2; also: Cu(II) complex of CPTA) [[Cu^II]-BZH6]”, for which the IC50 turned out to be 0.8 ± 0.2 nM with mouse GRP receptor and 1 ± 0.2 nM in the series with human GRP receptor.

In the case of “Cu^II-CPTA-[Gly^6, βAla^11] BN(6–14) [[Cu^II]-BZH8]”, the IC50 on mouse GRP receptor was 0.8 ± 0.2 nM; at human GRP receptor, 1.8 ± 0.6 nM.

Take “DOTA-PEG4-BN(7–14) [[^natGa/^natLu]-DOTA-PESIN]”: the IC50 was above 1000 nM in the series on BNRS-3 [4], 12.5 nM in the series with NMB-R [5] and 10 nM with GRP-R [6].

As to “In^III-DOTA-GABA-[D-Tyr^6, βAla^11, Nle^14] BN(6–14) [[In^III]-BZH4]”, the values for the IC50 on mouse GRP receptor and on human GRP receptor were 0.8 ± 0.4 nM and 41.5 ± 2.5 nM, respectively.

With [(N4-Bzdig)^0] BN (7–14), the IC50 with BNRS-3 [4] was 37 nM; in the series on NMB-R [5], 0.65 nM; in the series on GRP-R [6], 0.9 nM.
